Drawing on PubChem BioAssay (NCI), this text covers TGI and GI50 for two compounds.

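Five concentrations, 48 hours, 96-well plates. At the GI50, growth is halved. The concentration for full growth arrest is given as TGI.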 Some results are limits rather than exact numbers.

Test systems include MALME-3M melanoma; T-47D breast; MDA-MB-231 breast; RXF 393 renal; HL-60(TB) leukemia; KM12 colon; NCI-H460 lung; UACC-257 melanoma; SK-OV-3 ovarian; LOX IMVI melanoma.
Assay in all cases: inhibition of tumour cell growth, NCI panel, 48 h

For `O=c1oc2ccc(-n3c(=O)c4ccccc4c4ccccc4c3=O)cc2c2ccccc12`, the TGI with MALME-3M melanoma, with T-47D breast, with MDA-MB-231 breast, with RXF 393 renal, in the test with HL-60(TB) leukemia and in the test on KM12 colon was over 100 µM in each case. Also, the TGI in the test on NCI-H460 lung, in the test on UACC-257 melanoma, in the test on SK-OV-3 ovarian and with LOX IMVI melanoma was over 100 µM throughout.
Consider `O=C(Nc1nc2ccc(F)cc2s1)c1cccnc1Nc1ccc(Cl)cc1`, for which the GI50 was 2220 nM with MALME-3M melanoma; 1040 nM in the test on T-47D breast; 1880 nM in the test on MDA-MB-231 breast; 33.6 µM with RXF 393 renal; 1600 nM in the test with HL-60(TB) leukemia; 2610 nM in the test on KM12 colon. Further, the GI50 with NCI-H460 lung is 2220 nM; in the test with UACC-257 melanoma it was 677 nM; in the test on SK-OV-3 ovarian it was 2490 nM; with LOX IMVI melanoma, 2660 nM. Also, the TGI was over 27 µM in the test on MALME-3M melanoma; over 29.2 µM with T-47D breast; 5 µM with MDA-MB-231 breast; over 100 µM in the test with RXF 393 renal; 5.8 µM with HL-60(TB) leukemia; 8.54 µM with KM12 colon. Moreover, the values for the TGI with NCI-H460 lung, in the test on SK-OV-3 ovarian and in the test with LOX IMVI melanoma were over 100 µM, over 26.5 µM and over 28.8 µM, respectively.
